For data set [1], the system named is BaF3. The note with it: Homo sapiens.
Description: Inhibition of BCR/ABL p210-E255K mutant (unknown origin) expressed in mouse BA/F3 cells assessed as growth inhibition after 72 hrs by CellTiter-Glo or CCK-8 assay
Data set [2] can be described thus: Antiproliferative activity against human MOLM14 cells assessed as cell viability after 72 hrs by CellTiter-Glo or CCK-8 assay. The data set is classed as functional. The settings on record: MOLM-14, 72 h. On the technique in general: In ATP-based viability assays light output follows the ATP content of the culture.
Data set [3] relates to K562. The data set is described as follows: Antiproliferative activity against human K562 cells assessed as cell viability after 72 hrs by CellTiter-Glo or CCK-8 assay. Type of data set: functional. The settings on record: K562, 72 h.
For data set [4], the target named is Tyrosine-protein kinase HCK (Homo sapiens) (UniProt P08631). The note with it: BaF3.
Description: Inhibition of TEL-HCK (unknown origin) expressed in mouse BA/F3 cells assessed as growth inhibition after 72 hrs by CellTiter-Glo or CCK-8 assay
For data set [5], the system named is MV4-11. Nature of the data set: Antiproliferative activity against human MV4-11 cells assessed as cell viability after 72 hrs by CellTiter-Glo or CCK-8 assay. Type of data set: functional. The note with it: MV4-11, 72 h.
Data set [6] addresses Tyrosine-protein kinase Blk (Homo sapiens) (UniProt P51451). The settings on record: BaF3.
Description: Inhibition of TEL-BLK (unknown origin) expressed in mouse BA/F3 cells assessed as growth inhibition after 72 hrs by CellTiter-Glo or CCK-8 assay
Data set [7] has as its target Tyrosine-protein kinase Lck (Homo sapiens) (UniProt P06239). The note with it: BaF3.
Description: Inhibition of TEL-LCK (unknown origin) expressed in mouse BA/F3 cells assessed as growth inhibition after 72 hrs by CellTiter-Glo or CCK-8 assay
A short description of data set [8]: Antiproliferative activity against human U937 cells assessed as cell viability after 72 hrs by CellTiter-Glo or CCK-8 assay. The data set is classed as functional. The settings on record: U-937, 72 h.
Data set [9] can be described thus: Antiproliferative activity against human KU812 cells assessed as cell viability after 72 hrs by CellTiter-Glo or CCK-8 assay. Type of data set: functional. The note with it: KU812, 72 h.
Data set [10] concerns BaF3. The settings on record: Homo sapiens. This is another data set of the same source.
Description: Inhibition of BCR/ABL p210-F317I mutant (unknown origin) expressed in mouse BA/F3 cells assessed as growth inhibition after 72 hrs by CellTiter-Glo or CCK-8 assay
The test system of data set [11] is HEL. The data set is described as follows: Antiproliferative activity against human HEL cells assessed as cell viability after 72 hrs by CellTiter-Glo or CCK-8 assay. The data set is classed as functional.
Data set [12] in a line: Antiproliferative activity against human MEG01 cells assessed as cell viability after 72 hrs by CellTiter-Glo or CCK-8 assay. The note with it: MEG-01, 72 h. The data set is classed as functional.
Data set [13] can be described thus: Antiproliferative activity against mouse BA/F3 cells assessed as cell viability after 72 hrs by CellTiter-Glo or CCK-8 assay. Type of data set: cell-based, BaF3.
For data set [14], the target named is T1, Discoidin domain-containing receptor 2 (Homo sapiens) (UniProt Q16832).
T1 sequence (whole entry): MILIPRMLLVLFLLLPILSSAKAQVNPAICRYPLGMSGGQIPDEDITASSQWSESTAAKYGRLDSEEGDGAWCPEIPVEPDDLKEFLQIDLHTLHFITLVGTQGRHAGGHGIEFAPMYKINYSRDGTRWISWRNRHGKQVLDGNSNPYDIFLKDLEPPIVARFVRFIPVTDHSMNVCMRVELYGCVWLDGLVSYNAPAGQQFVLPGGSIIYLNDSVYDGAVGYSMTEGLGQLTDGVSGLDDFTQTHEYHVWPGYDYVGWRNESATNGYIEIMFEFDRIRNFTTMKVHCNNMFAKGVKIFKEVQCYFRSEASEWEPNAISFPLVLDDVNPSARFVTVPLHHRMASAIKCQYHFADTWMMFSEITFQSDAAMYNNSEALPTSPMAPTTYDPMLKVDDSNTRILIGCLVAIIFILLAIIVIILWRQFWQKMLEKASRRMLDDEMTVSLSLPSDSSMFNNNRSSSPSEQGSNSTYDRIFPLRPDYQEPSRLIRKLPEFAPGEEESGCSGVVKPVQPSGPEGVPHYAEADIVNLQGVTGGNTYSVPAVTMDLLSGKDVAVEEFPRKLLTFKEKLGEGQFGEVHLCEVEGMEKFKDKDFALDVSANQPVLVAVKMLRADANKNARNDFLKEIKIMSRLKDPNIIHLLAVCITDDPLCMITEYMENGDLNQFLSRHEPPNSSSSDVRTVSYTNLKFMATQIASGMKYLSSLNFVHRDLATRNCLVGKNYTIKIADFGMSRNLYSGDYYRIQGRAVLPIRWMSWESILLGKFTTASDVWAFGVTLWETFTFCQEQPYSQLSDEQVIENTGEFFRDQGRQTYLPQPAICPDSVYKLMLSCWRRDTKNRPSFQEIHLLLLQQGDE
The note with it: BaF3.
Description: Inhibition of TEL-DDR2 (unknown origin) expressed in mouse BA/F3 cells assessed as growth inhibition after 72 hrs by CellTiter-Glo or CCK-8 assay

The test system of data set [15] is BaF3. The settings on record: Homo sapiens. This is another data set of the same source.
Description: Inhibition of BCR/ABL p210-T315I mutant (unknown origin) expressed in mouse BA/F3 cells assessed as growth inhibition after 72 hrs by CellTiter-Glo or CCK-8 assay
Data set [16] deals with Proto-oncogene tyrosine-protein kinase Src (Homo sapiens, UniProt P12931). The note with it: BaF3.
Description: Inhibition of TEL-SRC (unknown origin) expressed in mouse BA/F3 cells assessed as growth inhibition after 72 hrs by CellTiter-Glo or CCK-8 assay
Data set [17] can be described thus: Antiproliferative activity against […] CHL cells assessed as cell viability after 72 hrs by CellTiter-Glo or CCK-8 assay. The data set is classed as cell-based, Cricetulus griseus. The note with it: chinese hamster.
Data set [18] has as its target Bcr/Abl fusion protein (Homo sapiens) (UniProt P00519+P11274). The note with it: BaF3.
Description: Inhibition of BCR/ABL p210 (unknown origin) expressed in mouse BA/F3 cells assessed as growth inhibition after 72 hrs by CellTiter-Glo or CCK-8 assay
The target in data set [19] is Transcription factor ETV6/Tyrosine-protein kinase ABL1 (Homo sapiens) (UniProt P00519+P41212). The note with it: BaF3.
Description: Inhibition of Tel-ABL (unknown origin) expressed in mouse BA/F3 cells assessed as cell growth inhibition after 72 hrs by CellTiter-Glo or CCK-8 assay
The target of data set [20] is Epithelial discoidin domain-containing receptor 1 (Homo sapiens, UniProt Q08345). The settings on record: BaF3.
Description: Inhibition of TEL-DDR1 (unknown origin) expressed in mouse BA/F3 cells assessed as growth inhibition after 72 hrs by CellTiter-Glo or CCK-8 assay

The structures appear in SMILES notation.

Chain of Tyrosine-protein kinase Blk (Homo sapiens) (P51451 2-505 limits assumed): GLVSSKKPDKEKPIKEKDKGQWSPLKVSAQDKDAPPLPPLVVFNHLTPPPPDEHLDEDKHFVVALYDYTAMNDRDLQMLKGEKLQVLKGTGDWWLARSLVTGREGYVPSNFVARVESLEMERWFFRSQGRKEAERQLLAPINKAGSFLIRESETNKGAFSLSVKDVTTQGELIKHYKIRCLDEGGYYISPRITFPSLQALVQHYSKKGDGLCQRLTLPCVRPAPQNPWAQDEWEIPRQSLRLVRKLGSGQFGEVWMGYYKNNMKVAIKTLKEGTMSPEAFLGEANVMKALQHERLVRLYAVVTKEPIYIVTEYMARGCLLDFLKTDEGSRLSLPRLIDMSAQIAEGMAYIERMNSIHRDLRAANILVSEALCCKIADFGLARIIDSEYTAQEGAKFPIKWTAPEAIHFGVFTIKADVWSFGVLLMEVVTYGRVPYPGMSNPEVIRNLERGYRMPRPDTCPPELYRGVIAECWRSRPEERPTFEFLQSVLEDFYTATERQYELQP
Chain of Tyrosine-protein kinase HCK (Homo sapiens) (P08631 2-526 limits assumed): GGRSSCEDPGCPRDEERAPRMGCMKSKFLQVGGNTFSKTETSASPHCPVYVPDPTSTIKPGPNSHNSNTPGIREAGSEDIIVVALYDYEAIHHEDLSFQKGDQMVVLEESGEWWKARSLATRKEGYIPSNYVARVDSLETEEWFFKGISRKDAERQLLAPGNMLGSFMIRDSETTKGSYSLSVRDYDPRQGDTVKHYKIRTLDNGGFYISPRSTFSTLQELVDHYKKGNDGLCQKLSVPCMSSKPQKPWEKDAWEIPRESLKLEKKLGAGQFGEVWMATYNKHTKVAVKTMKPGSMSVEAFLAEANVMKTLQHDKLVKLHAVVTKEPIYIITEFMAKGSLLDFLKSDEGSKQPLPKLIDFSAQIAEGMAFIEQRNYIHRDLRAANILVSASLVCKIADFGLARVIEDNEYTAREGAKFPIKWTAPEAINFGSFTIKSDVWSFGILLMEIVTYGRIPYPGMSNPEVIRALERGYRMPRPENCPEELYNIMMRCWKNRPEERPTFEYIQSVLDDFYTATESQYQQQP
Chain of Bcr/Abl fusion protein (Homo sapiens) (P00519 whole entry, looked up, the tested form may be a part): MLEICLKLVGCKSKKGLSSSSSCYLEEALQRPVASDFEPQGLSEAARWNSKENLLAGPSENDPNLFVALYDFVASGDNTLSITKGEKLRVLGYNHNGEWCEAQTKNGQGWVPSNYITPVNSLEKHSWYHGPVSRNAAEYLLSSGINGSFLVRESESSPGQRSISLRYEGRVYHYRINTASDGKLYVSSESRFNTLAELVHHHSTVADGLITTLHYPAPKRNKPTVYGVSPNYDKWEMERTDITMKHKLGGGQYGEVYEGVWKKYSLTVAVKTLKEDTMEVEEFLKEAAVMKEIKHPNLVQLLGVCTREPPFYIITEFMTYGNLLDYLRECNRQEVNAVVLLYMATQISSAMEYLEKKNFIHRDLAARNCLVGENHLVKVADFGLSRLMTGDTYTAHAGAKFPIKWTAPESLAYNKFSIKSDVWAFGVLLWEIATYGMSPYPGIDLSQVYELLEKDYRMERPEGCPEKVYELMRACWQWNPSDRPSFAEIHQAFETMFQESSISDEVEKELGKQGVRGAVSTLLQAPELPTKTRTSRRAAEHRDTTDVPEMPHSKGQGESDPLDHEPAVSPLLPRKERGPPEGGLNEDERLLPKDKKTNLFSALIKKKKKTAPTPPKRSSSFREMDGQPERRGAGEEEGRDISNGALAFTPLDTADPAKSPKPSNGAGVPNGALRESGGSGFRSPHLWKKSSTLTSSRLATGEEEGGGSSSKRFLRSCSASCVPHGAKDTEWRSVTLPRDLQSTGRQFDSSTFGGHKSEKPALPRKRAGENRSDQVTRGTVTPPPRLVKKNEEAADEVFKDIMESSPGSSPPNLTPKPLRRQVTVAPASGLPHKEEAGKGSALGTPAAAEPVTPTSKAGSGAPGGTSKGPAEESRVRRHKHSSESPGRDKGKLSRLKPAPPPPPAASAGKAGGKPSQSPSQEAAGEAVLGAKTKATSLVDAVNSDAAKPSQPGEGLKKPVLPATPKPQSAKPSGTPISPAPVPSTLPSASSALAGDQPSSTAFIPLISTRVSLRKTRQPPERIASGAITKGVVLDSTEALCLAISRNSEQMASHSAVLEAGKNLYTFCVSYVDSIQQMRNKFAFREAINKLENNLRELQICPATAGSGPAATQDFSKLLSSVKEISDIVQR
Chain of Bcr/Abl fusion protein (Homo sapiens) (P11274 whole entry, looked up, the tested form may be a part): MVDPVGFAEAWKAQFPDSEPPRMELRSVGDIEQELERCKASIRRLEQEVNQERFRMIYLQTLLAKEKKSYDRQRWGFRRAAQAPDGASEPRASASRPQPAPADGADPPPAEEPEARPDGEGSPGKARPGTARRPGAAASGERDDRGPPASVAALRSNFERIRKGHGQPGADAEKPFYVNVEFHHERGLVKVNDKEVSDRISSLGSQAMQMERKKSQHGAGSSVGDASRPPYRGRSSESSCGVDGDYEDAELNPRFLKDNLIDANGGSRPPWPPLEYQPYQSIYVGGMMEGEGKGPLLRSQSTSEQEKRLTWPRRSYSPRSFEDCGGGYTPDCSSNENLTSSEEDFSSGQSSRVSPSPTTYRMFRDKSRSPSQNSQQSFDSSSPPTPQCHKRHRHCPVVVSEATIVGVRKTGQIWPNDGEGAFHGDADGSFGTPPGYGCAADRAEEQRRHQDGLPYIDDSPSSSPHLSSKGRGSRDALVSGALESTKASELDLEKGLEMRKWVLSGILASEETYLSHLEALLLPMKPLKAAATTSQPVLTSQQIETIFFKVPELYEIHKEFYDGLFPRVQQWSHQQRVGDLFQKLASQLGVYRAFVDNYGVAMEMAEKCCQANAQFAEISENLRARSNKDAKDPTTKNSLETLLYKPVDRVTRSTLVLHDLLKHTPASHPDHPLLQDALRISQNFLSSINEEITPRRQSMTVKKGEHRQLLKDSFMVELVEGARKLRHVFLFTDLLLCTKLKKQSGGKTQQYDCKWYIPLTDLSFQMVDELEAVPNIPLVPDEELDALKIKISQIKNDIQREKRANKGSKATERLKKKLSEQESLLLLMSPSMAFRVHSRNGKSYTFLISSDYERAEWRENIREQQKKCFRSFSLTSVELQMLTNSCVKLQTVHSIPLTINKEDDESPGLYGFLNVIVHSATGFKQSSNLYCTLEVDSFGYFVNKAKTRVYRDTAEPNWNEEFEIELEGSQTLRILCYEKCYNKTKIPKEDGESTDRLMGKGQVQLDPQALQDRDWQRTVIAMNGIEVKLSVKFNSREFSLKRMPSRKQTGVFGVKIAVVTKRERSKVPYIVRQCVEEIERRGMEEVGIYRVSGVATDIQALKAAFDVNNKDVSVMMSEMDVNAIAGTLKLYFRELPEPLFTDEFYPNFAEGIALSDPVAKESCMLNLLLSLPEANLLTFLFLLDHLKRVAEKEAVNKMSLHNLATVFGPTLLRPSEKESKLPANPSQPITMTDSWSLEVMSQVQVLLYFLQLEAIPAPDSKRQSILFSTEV
Chain of Transcription factor ETV6/Tyrosine-protein kinase ABL1 (Homo sapiens) (P00519 whole entry, looked up, the tested form may be a part): as the sequence (P00519 whole entry, looked up, the tested form may be a part) above
Chain of Transcription factor ETV6/Tyrosine-protein kinase ABL1 (Homo sapiens) (P41212 whole entry, looked up, the tested form may be a part): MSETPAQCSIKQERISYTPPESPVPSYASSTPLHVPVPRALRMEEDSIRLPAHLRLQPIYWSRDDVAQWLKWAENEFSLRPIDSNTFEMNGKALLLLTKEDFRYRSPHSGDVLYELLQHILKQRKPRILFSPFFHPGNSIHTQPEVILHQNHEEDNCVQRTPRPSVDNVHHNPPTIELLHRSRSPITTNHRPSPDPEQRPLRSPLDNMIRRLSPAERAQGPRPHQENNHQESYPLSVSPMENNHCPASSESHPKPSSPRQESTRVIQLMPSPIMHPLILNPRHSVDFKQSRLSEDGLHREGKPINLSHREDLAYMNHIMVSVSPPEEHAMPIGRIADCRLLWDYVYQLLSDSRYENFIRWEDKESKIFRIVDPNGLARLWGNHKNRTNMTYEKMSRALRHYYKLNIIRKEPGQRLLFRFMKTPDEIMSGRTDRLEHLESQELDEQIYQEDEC
Chain of Tyrosine-protein kinase Lck (Homo sapiens) (P06239 2-509 limits assumed): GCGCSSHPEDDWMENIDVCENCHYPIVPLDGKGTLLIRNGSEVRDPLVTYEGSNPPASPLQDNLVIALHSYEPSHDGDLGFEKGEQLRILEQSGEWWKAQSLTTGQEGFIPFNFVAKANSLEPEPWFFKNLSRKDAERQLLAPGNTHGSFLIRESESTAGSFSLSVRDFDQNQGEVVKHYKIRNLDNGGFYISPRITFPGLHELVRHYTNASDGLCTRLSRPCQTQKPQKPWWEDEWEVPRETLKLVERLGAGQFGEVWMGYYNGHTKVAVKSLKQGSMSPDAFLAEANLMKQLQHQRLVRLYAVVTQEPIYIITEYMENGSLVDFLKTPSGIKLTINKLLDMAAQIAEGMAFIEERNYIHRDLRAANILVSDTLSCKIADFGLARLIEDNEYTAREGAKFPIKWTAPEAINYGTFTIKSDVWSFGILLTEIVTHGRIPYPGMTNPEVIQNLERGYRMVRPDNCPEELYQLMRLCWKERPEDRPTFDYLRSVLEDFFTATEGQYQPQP
Chain of Proto-oncogene tyrosine-protein kinase Src (P12931 2-536 limits assumed): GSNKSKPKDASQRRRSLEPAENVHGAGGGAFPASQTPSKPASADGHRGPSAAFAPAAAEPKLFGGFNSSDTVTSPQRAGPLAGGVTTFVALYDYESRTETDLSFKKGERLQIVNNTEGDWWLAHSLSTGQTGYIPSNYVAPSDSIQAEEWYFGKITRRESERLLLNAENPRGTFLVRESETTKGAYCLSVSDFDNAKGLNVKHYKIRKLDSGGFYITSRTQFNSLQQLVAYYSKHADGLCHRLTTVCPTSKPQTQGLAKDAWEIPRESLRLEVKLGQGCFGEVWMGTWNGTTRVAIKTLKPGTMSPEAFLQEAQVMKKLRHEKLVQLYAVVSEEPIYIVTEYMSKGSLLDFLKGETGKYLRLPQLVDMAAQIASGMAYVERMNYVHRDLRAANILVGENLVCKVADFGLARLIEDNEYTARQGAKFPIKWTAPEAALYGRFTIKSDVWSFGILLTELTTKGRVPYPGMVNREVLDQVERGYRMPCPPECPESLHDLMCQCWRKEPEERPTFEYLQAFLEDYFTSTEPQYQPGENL

The term GI50 denotes the concentration giving 50% growth inhibition. Regarding `Cc1cn(-c2cc(NC(=O)c3ccc(C)c(Nc4nccc(-c5cccnc5)n4)c3)cc(C(F)(F)F)c2)cn1` [NILOTINIB], the GI50 was 0.021 µM in [1]; over 10 µM in [2]; 0.002 µM in [3]; 4.1 µM in [4]; over 10 µM in data set [5]; 1.3 µM in [6]. Besides, the GI50 in [7] is 0.87 µM; in [8] it was over 10 µM; in data set [9] it was 0.001 µM; in data set [10] it was 0.0546 µM; in [11], 3.9 µM; in data set [12], 0.016 µM. Moreover, the GI50 in data set [14] was 1.4 µM; in data set [15], over 10 µM; in [16], 0.47 µM. In addition, the results for the GI50 at 72 h in data set [13] and in data set [17] were 2.1 µM and 4.2 µM, respectively.
As to `Cc1ccc(Nc2ncc3c(n2)N(C)C(=O)N(c2cc(NC(=O)c4cccc(C(F)(F)F)c4)ccc2C)C3)cc1N`, the GI50 in [3] is 0.003 µM; in data set [18], 0.005 µM; in data set [19] it was 0.005 µM. Moreover, the GI50 at 72 h in [13] was found to be 0.44 µM.
`Cc1ccc(NC(=O)c2ccc(CN3CCN(C)CC3)cc2)cc1Nc1nccc(-c2cccnc2)n1` [IMATINIB]: the GI50 is 1.93 µM in [1]; over 10 µM in data set [2]; 0.14 µM in data set [3]; 9.7 µM in data set [4]; over 10 µM in data set [5]; 4.1 µM in data set [6]. In addition, the GI50 in [8] is over 10 µM; in data set [9], 0.16 µM; in data set [10], 0.855 µM; in data set [11], 5.3 µM; in data set [12], 0.24 µM; in data set [14] it was 7.7 µM. Further, the GI50 in data set [15] was over 10 µM. In addition, the GI50 at 72 h in data set [13] is 6.7 µM; in data set [17] it was over 10 µM.
With `Cc1nc(Nc2ncc(C(=O)Nc3c(C)cccc3Cl)s2)cc(N2CCN(CCO)CC2)n1` [DASATINIB], the GI50 in [1] was 0.017 µM; in [2] it was 2.3 µM; in data set [3], under 0.0003 µM; in [4], 0.039 µM; in data set [5] it was 3.6 µM; in [6] it was 0.005 µM. The 50% growth inhibitory concentration (GI50) was over 10 µM in [8]; under 0.0003 µM in data set [9]; 0.01 µM in [10]; 5.3 µM in data set [11]; under 0.0003 µM in [12]; 3 µM in data set [14]. Besides, the GI50 in [15] amounted to 9.94 µM; in data set [20] it was 3 µM. The results for the GI50 at 72 h in data set [13] and in data set [17] were over 10 µM and 0.27 µM, respectively.
As for `Cc1ccc(NC(=O)c2cccc(C(F)(F)F)c2)cc1NC(=O)c1cnc(Nc2ccc(C)c([N+](=O)[O-])c2)nc1`, the GI50 in [3] stood at 0.38 µM; in [18], 1.2 µM; in [19], 1.4 µM. In data set [13], the GI50 at 72 h was 8.7 µM.

Values taken from ChEMBL document CHEMBL3779840, “Discovery of 2-((3-Amino-4-methylphenyl)amino)-N-(2-methyl-5-(3-(trifluoromethyl)benzamido)phenyl)-4-(methylamino)pyrimidine-5-carboxamide (CHMFL-ABL-053) as a Potent, Selective, and Orally Available BCR-ABL/SRC/p38 Kinase Inhibitor for Chronic Myeloid Leukemia” (J Med Chem, 2016).
